Experimental findings from US20050176740A1, “Cancer treatment method comprising administering an erb-family inhibitor and a raf and/or ras inhibitor” (priority 2002, published 2005) are described below.

What all share (assay type): cell-based, human
Test [1] relates to pTyr in parental HB4a cells. Kind of test: Western blot of tyrosine phosphorylation (pTyr) after GW2016 treatment, FIG. 2. The following applies: 1 μM or 5 μM GW2016/72 hours. The protocol: (§1) The HB4a cell line was derived from human mammary luminal tissue. HB4a-erbB2 and HB4a-ras cell lines were generated by overexpression of erbB2 and mutant Ha-(Val-12)-ras in HB4a cell line. The S1 cell line was established by sub-cloning ErbB-2 transfected HB4a (see Harris R A, Eichholtz T J, Hiles J D, Page M J and O'Hare M J. (1999). Int J. Cancer. 80, 477, 484.)
(§2) HB4a cells grew in RPMI 1640 supplemented with L-glutamine, 10% FBS (Hyclone), 10 ug/ml hydrocortisone, and 5 ug/ml insulin. S1 and ras transfected cells were cultured in RPMI 1640 supplemented with L-glutamine, 10% FBS and 50 μg/ml hygromycin. Cell cultures were maintained in a humidified atmosphere of 5% CO2 at 37° C.
(§3) (a) The dual EGFR/erbB-2 inhibitor N-{3-Chloro-4-[(3-fluorobenzyl)oxy]phenyl}-6-[5-({[2-(methanesulphonyl)ethyl]amino}methyl)-2-furyl]-4-quinazolinamine and the cRaf-1 inhbitor of 3-(3,5-Dibromo-4-hydroxy-benzylidene)-5-iodo-1,3-dihydro-indol-2-one were dissolved in 100% DMSO to form solutions of 1, 5, 10, and 20 μM concentrations and tested on cells in growth medium for 3 continuous days. […]
(§4) Whole cell extracts were prepared by scraping cells off petri dishes, washing the cell pellet twice in PBS, and then resuspending the pellet in two-packed-cell volumes of RIPA buffer (150 mM NaCl, 50 mM Tris-HCl, pH 7.5, 0.25% deoxycholate, 1% NP-40, 5 mM sodium orthovanadate, 2 mM sodium fluoride and a protease inhibitor cocktail). Protein concentrations were determined using a modification of the Bradford method (Bio-Rad Laboratory). Steady state levels of total erbB-2, EGFR, Ras, Erk1/2, pErk1/2 and pTyr protein were assessed by Western blot which was carried out as follows: equal amounts of proteins was resolved by 7.5% SDS polyacrylamide gel electrophoresis under reducing conditions. […] Efficiency and equal loading of proteins was evaluated by Ponceau S staining. […]
(§5) HB4a cells growing in RPMI 1640 supplemented with L-glutamine, 10% FBS (Hyclone), 10 ug/ml hydrocortisone, and 5 μg/ml insulin. […] Protein concentrations were determined using a modification of the Bradford method (Bio-Rad Laboratory).
A general note: In western blotting, separated proteins are transferred to a membrane and probed.

Test [2] relates to pTyr in erbB-2 transfected HB4a cells. Described as above. Conditions: 1 μM or 5 μM GW2016/72 hours. The protocol: as §1, §2, §3, §4, §5
Test [3] concerns pTyr in Ha-(Val12)-ras transfected HB4a cells. Described as above. The following applies: 1 μM or 5 μM GW2016/72 hours. Here is the method:
as §1, §2, §3, §4, §5

For test [4], the system named is pErk1/Erk2 in Ha-(Val12)-ras transfected HB4a cells. As to the kind of experiment: Western blot of MAPK activation (pErk1/Erk2) after GW2016 treatment, FIG. 3. Conditions: Ha-(Val 12)-ras transfected HB4a cells; 1 μM or 5 μM GW2016/72 hours. Here is the method: as §1, §2, §3, §4, §5
Test [5] concerns pErk1/Erk2 in parental HB4a cells. Described as above. Conditions: 1 μM or 5 μM GW2016/72 hours. Here is the method:
as §1, §2, §3, §4, §5

The test system of test [6] is pErk1/Erk2 in erbB-2 transfected HB4a cells. The test is described as above. Conditions: 1 μM or 5 μM GW2016/72 hours. The protocol:
as §1, §2, §3, §4, §5

Each structure is given as a SMILES string.

For `CS(=O)(=O)CCNCc1ccc(-c2ccc3ncnc(Nc4ccc(OCc5cccc(F)c5)c(Cl)c4)c3c2)o1` [GW2016, N-{3-Chloro-4-[(3-fluorobenzyl)oxy]phenyl}-6-[5-({[2-(methanesulphonyl)ethyl]amino}methyl)-2-furyl]-4-quinazolinamine], the “tyrosine phosphorylation (pTyr), Western blot” value in test [1] and in test [2] was “reduction in tyrosine phosphorylation” throughout. The “effect on phosphorylation on tyrosine residues (pTyr), Western blot” value in test [3] is given as “no effect”. In addition, the “phosphorylation of Erk1/Erk2, Western blot” value in test [4] is “no effect”. In test [5], the “Erk1/Erk2 phosphorylation, Western blot” value was “reduction in Erk1/Erk2 phosphorylation”. Besides, the “pErk1/Erk2, Western blot” value in test [6] is recorded as “decrease in pErk1/Erk2”.
